From patent publication US20250034089A1, “TETRAHYDROCARBAZOLE COMPOUND, AND PHARMACEUTICAL COMPOSITION AND USE THEREOF” (NAIN BIOTECH (HANGZHOU) CO., LTD., priority 2021, published 2025) come the findings set out here.

Structures are written as SMILES.

One test has as its system Hep3B (human liver cancer cells). The test can be described thus: In vitro proliferation inhibition (CCK-8), Hep3B. The test is classed as cell-based. Conditions: Homo sapiens, test (2), average±standard deviation of three wells. The text has this:
(§1) • 1) Cell sources: HeLa (human cervical cancer cells), CaSki (human cervical cancer intestinal metastasis cells), Huh7 (human liver cancer cells), HepG2 (human liver cancer cells), Hep3B (human liver cancer cells) were purchased from the Chinese Academy of Sciences cell bank (Shanghai); LO2 (human normal liver cells) and HcerEpic (human normal uterine epithelial cells) were from ATCC. • 2) Cell culture and passage: The cell culture and passage method is the same as that described in “The inhibitory effect of compounds on the OCT4 protein in tumor stem cells (CSC)”. • 3) Cell dosing treatment: The each type of cells mentioned above was digested, counted, and inoculated in each well of the 96 well cell culture plate (#3988, Corning) at a density of 5000 cells/200 μl culture medium. They were cultured in a cell culture incubator at 37° C. and 5% CO2 for 24 hours to allow the cells to fully adherent to the wall. Then, the original culture medium was replaced with complete culture medium containing gradient diluted KZT-A5 (each concentration with 3 repeated wells) as well as DMSO (#D5879, Sigma Aldrich) solvent control, and they are cultured for additional 72 hours. • 4) Pharmacodynamic test and statistics: First, the morphology of cells treated with the above compounds was observed, photographed and recorded using an inverted phase contrast microscope (X71, Olympus). Then the original culture medium was replaced with phenol red free culture medium containing CCK-8 detection reagent (#E606335, Shanghai Shenggong) respectively, and they are cultured in the incubator for additional 2 hours. Then the OD450 nm absorbance value (OD value) was measured on a multifunctional enzyme-linked immunosorbent assay (168-1130, Bio Rad). After the cells were treated with the test compound, the equations for calculating the cell survival rate or cell growth rate is: survival rate=GD value of the treated group/OD value of the control group×100%; the equations for calculating the growth inhibition rate of compounds on cell proliferation is: inhibition rate=(OD value of control group−OD value of the treated group)/OD value of control group×100%. Further, the IC50 of each compound was calculated in SPSS based on the inhibition rate. […]
For the compound `CCC(CO)/N=C1\CCCc2c1[nH]c1ccc(C)cc21` (stereo not drawn) [AH057, reference compound], half-maximal inhibition (IC50) was put at 18 ± 1.2 µM.

The test system of another test is HeLa cells. The test is described as follows: Clone formation of HeLa cells, single drugs and combination. The class given is cell-based, human. To be noted: 700 nM KZT-A5, 100 nM SGI-1027, two weeks, compared with DMSO control, FIG. 7. The source says:
• 1) Cell source: HeLa cells were purchased from the Chinese Academy of Sciences Cell Bank (Shanghai). • 2) Cell culture and passage: The cell culture and passage method is the same as that described in “Inhibition of OCT4 protein in tumor stem cells (CSCs) by compounds”. • 3) Cell dosing treatment: The cells were inoculated into a 6-well plate containing the aforementioned culture medium at a density of 200 cells per well. They were divided into four groups, and DMSO (as blank control group), 700 nM KZT-A5 (as KZT-A5 single drug group), 100 nM SGI-1027 (as SGI-1027 single drug group), and 700 nM KZT-A5+100 nM SGI-1027 (as combination group) was added respectively. After two weeks, they were photographed, and the number of clones was counted in each group respectively.
`Cc1cc(Nc2ccc(NC(=O)c3ccc(Nc4ccnc5ccccc45)cc3)cc2)nc(N)n1` [SGI-1027, reference compound]: the “inhibition of clone formation” value is “only slightly inhibits clone formation”.

A further test has as its system HeLa (human cervical cancer cells). The test can be described thus: In vitro proliferation inhibition (CCK-8), HeLa. Conditions: Homo sapiens, 72 h, CCK-8, average of three wells in one test. The test is classed as cell-based. The text has this:
(§2) • 1) Cell sources: HeLa (human cervical cancer cells), CaSki (human cervical cancer intestinal metastasis cells), Huh7 (human liver cancer cells), HepG2 (human liver cancer cells), Hep3B (human liver cancer cells) were purchased from the Chinese Academy of Sciences cell bank (Shanghai); LO2 (human normal liver cells) and HcerEpic (human normal uterine epithelial cells) were from ATCC. • 2) Cell culture and passage: The cell culture and passage method is the same as that described in “The inhibitory effect of compounds on the OCT4 protein in tumor stem cells (CSC)”. • 3) Cell dosing treatment: The each type of cells mentioned above was digested, counted, and inoculated in each well of the 96 well cell culture plate (#3988, Corning) at a density of 5000 cells/200 μl culture medium. They were cultured in a cell culture incubator at 37° C. and 5% CO2 for 24 hours to allow the cells to fully adherent to the wall. Then, the original culture medium was replaced with complete culture medium containing gradient diluted KZT-A5 (each concentration with 3 repeated wells) as well as DMSO (#D5879, Sigma Aldrich) solvent control, and they are cultured for additional 72 hours. • 4) Pharmacodynamic test and statistics: First, the morphology of cells treated with the above compounds was observed, photographed and recorded using an inverted phase contrast microscope (X71, Olympus). Then the original culture medium was replaced with phenol red free culture medium containing CCK-8 detection reagent (#E606335, Shanghai Shenggong) respectively, and they are cultured in the incubator for additional 2 hours. Then the OD450 nm absorbance value (OD value) was measured on a multifunctional enzyme-linked immunosorbent assay (168-1130, Bio Rad). After the cells were treated with the test compound, the equations for calculating the cell survival rate or cell growth rate is: survival rate=GD value of the treated group/OD value of the control group×100%; the equations for calculating the growth inhibition rate of compounds on cell proliferation is: inhibition rate=(OD value of control group−OD value of the treated group)/OD value of control group×100%. Further, the IC50 of each compound was calculated in SPSS based on the inhibition rate.
(§3) • 1) Cell sources: Huh7 (human liver cancer cells), HepG2 (human liver cancer cells), Hep3B (human liver cancer cells), and HeLa (human cervical cancer cells) were all purchased from the Chinese Academy of Sciences cell bank (Shanghai), while LO2 (human normal liver cells) was obtained from ATCC. • 2) Cell culture and passage: The cell culture and passage method is the same as that described in “The inhibitory effect of compounds on human tumor cell lines from different tissue sources (1)”. • 3) Cell dosing treatment: The cell dosing treatment method is the same as that described in “The inhibitory effect of compounds on human tumor cell lines from different tissue sources (1). • 4) Pharmacodynamic test and statistics: The pharmacodynamic test and statistics method is the same as that described in “The inhibitory effect of compounds on human tumor cell lines from different tissue sources (1)”. The IC50 value data of the compound on each type of tumor cells is the average±standard deviation of three wells in one test.
With `COc1cc(CC2CCc3c([nH]c4ccc(C)cc34)C2=O)ccc1O` (stereo not drawn) [Compound 8], the IC50 was less than 50 µM.

`Cc1ccc2[nH]c3c(c2c1)CC/C(=C\c1c[nH]c2ncccc12)C3=O` [Compound 14] returned an IC50 of less than 50 µM.

For `Cc1ccc2[nH]c3c(c2c1)CC/C(=C\c1ccnc2[nH]ccc12)C3=O` [Compound 16], the IC50 is less than 50 µM.

In turn, `COc1cc(/C=C2\CCc3c([nH]c4ccc(Br)cc34)C2=O)ccc1O` [Compound 19] registered an IC50 of less than 50 µM.

For `COc1cc(/C=C2\CCc3c([nH]c4ccc(C#N)cc34)C2=O)ccc1O` [Compound 20], the 50% inhibitory concentration (IC50) is less than 50 µM.

As to `COC(=O)c1ccc2[nH]c3c(c2c1)CC/C(=C\c1ccc(O)c(OC)c1)C3=O` [Compound 21], the IC50 is less than 50 µM.

For `COc1cc(/C=C2\CCc3c([nH]c4ccc(N5CCC(O)CC5)cc34)C2=O)ccc1O` [Compound 22], the half-maximal inhibitory concentration (IC50) is less than 50 µM.

Turning to `COc1cc(/C=C2\CCc3c([nH]c4ccc(N5CCNCC5)cc34)C2=O)ccc1O` [Compound 23], the IC50 was less than 50 µM.

`COc1cc(/C=C2\CCc3c([nH]c4ccc(-c5cn[nH]c5)cc34)C2=O)ccc1O` [Compound 24]: the half-inhibitory concentration (IC50) was less than 50 µM.

With `C#Cc1ccc2[nH]c3c(c2c1)CC/C(=C\c1ccc(O)c(OC)c1)C3=O` [Compound 25], the 50% inhibitory concentration (IC50) is less than 50 µM.

In turn, `COc1cc(/C=C2\CCc3c([nH]c4ccc(F)cc34)C2=O)ccc1O` [Compound 27] came in with an IC50 of less than 50 µM.

Compound `COC(=O)c1ccc2[nH]c3c(c2n1)CC/C(=C\c1ccc(O)c(OC)c1)C3=O` [Compound 28] registered an IC50 of less than 50 µM.

In the case of `COc1cc(/C=C2\CCc3c([nH]c4cc(OC)c(OC)cc34)C2=O)ccc1O` [Compound 31], the IC50 is less than 50 µM.

In turn, `COc1cc(/C=C2\CCc3c([nH]c4c(Cl)cc(Cl)cc34)C2=O)ccc1O` [Compound 32] had an IC50 of less than 50 µM.

Compound `COc1ccc2[nH]c3c(c2n1)CC/C(=C\c1ccc(O)c(OC)c1)C3=O` [Compound 33] showed a half-maximal inhibitory concentration (IC50) of less than 50 µM.

Still in this test, the particulars now being: Homo sapiens, 72 hours, CCK-8, average of three wells in one test.
In turn, `COc1ccc2[nH]c3c(c2c1)CC/C(=C\c1ccc(O)c(OC)c1)C3=O` [Compound 18] showed a half-inhibitory concentration (IC50) of less than 50 µM.

`COc1cc(/C=C2\CC(C)(C)c3c([nH]c4ccc(C)cc34)C2=O)ccc1O` [Compound 34] displayed an IC50 of less than 50 µM.

`COc1cc(/C=C2\Cc3c([nH]c4ccc(C)cc34)C2=O)ccc1O` [Compound 35] yielded an IC50 of less than 50 µM.

The compound `COc1cc(/C=C2\CSc3c([nH]c4ccc(C)cc34)C2=O)ccc1O` [Compound 36] returned a half-inhibitory concentration (IC50) of less than 50 µM.

As for `COc1cc(/C=C2\CCCc3c([nH]c4ccc(C)cc34)C2=O)ccc1O` [Compound 37], the half-maximal inhibitory concentration (IC50) is less than 50 µM.

Regarding `COc1cc(/C=C2\CCc3c([nH]c4ccc(C)cc34)C2=O)cc(OC)c1OC` [Compound 38], the 50% inhibitory concentration (IC50) was less than 50 µM.

Still in this test, the particulars now being: Homo sapiens, test (2), average±standard deviation of three wells.
`CCC(CO)/N=C1\CCCc2c1[nH]c1ccc(C)cc21` (stereo not drawn) [AH057, reference compound] showed an IC50 of 0.63 ± 0.03 µM.

The test system of another test is HepG2 (human liver cancer cells). The test is described as follows: In vitro proliferation inhibition (CCK-8), HepG2. The class given is cell-based. To be noted: Homo sapiens; HepG2, test (2), average±standard deviation of three wells.
Excerpt: as §1
Take `CCC(CO)/N=C1\CCCc2c1[nH]c1ccc(C)cc21` (stereo not drawn) [AH057, reference compound]: half-maximal inhibition (IC50) required 40.02 ± 0.08 µM.

The test system of a further test is Huh7 (human liver cancer cells). The test can be described thus: In vitro proliferation inhibition (CCK-8), Huh7. The class given is cell-based. To be noted: Homo sapiens, Huh-7, Huh7, test (2), average±standard deviation of three wells.
Excerpt: as §2, §3
`CCC(CO)/N=C1\CCCc2c1[nH]c1ccc(C)cc21` (stereo not drawn) [AH057, reference compound] returned an IC50 of 44.2 ± 1.61 µM.

For another test, the system named is LO2 (human normal liver cells). The test is described as follows: In vitro proliferation inhibition (CCK-8), LO2. The class given is cell-based. Conditions: LO2, test (2), average±standard deviation of three wells. The text has this:
• 1) Cell sources: HeLa (human cervical cancer cells), CaSki (human cervical cancer intestinal metastasis cells), Huh7 (human liver cancer cells), HepG2 (human liver cancer cells), Hep3B (human liver cancer cells) were purchased from the Chinese Academy of Sciences cell bank (Shanghai); LO2 (human normal liver cells) and HcerEpic (human normal uterine epithelial cells) were from ATCC. • 2) Cell culture and passage: The cell culture and passage method is the same as that described in “The inhibitory effect of compounds on the OCT4 protein in tumor stem cells (CSC)”. • 3) Cell dosing treatment: The each type of cells mentioned above was digested, counted, and inoculated in each well of the 96 well cell culture plate (#3988, Corning) at a density of 5000 cells/200 μl culture medium. They were cultured in a cell culture incubator at 37° C. and 5% CO2 for 24 hours to allow the cells to fully adherent to the wall. Then, the original culture medium was replaced with complete culture medium containing gradient diluted KZT-A5 (each concentration with 3 repeated wells) as well as DMSO (#D5879, Sigma Aldrich) solvent control, and they are cultured for additional 72 hours. • 4) Pharmacodynamic test and statistics: First, the morphology of cells treated with the above compounds was observed, photographed and recorded using an inverted phase contrast microscope (X71, Olympus). Then the original culture medium was replaced with phenol red free culture medium containing CCK-8 detection reagent (#E606335, Shanghai Shenggong) respectively, and they are cultured in the incubator for additional 2 hours. Then the OD450 nm absorbance value (OD value) was measured on a multifunctional enzyme-linked immunosorbent assay (168-1130, Bio Rad). […] Further, the IC50 of each compound was calculated in SPSS based on the inhibition rate. […]
`CCC(CO)/N=C1\CCCc2c1[nH]c1ccc(C)cc21` (stereo not drawn) [AH057, reference compound] had an IC50 of 85.5 ± 2.92 µM.
